Assay results taken from patent US20100330003A1, “ORAL CARE PRODUCT AND METHODS OF USE AND MANUFACTURE THEREOF” (Colgate-Palmolive Company, priority 2008, published 2010).

System: S. sanguis
Assay: ammonia production by S. sanguis at pH 4.0 (Ammonia Assay kit)
Format: cell-based
Conditions: 5 millimolar amino acid, 0.1% sucrose, pH 4.0, 37° C., 30 minutes
Procedure: An overnight culture of S. sanguis is grown at 37° C. in trypticase soy broth (Becton Dickinson, Sparks, Md.). The culture is centrifuged at 5,000 rpm for 5 minutes at 1 milliliter at a time into preweighed tubes in order to accumulate approximately 5 milligrams of wet pellet weight. The pellet is then resuspended into 20 millimolar potassium phosphate buffer (JT Baker. Phillipsburg, N.J.), pH 4.0, to simulate a stressed environment for the bacterial cell where ammonia would be produced for survival. The final concentration is 5 milligram per milliliter. To this final concentration, a 5 millimolar final concentration of L-arginine, L-citrulline, or L-ornithine is added along with a 0.1% final concentration of sucrose (VWR, West Chester, Pa.). This mixture is then incubated at 37° C. in a shaking water bath for 30 minutes before ammonia production is determined.
In order to analyze for ammonia, an Ammonia Assay kit is used from Diagnostic Chemicals Limited (Oxford, Conn.). The intended use of this specific kit is for the in vitro quantification of ammonia in plasma, but the procedure is modified in order to determine and quantity the ammonia production in plaque and/or bacteria.

| Compound | Ammonia (ppm) (Mean of 6 separate trials) | Ammonia (ppm) (Trial 1) | Ammonia (ppm) (Trial 2) | Ammonia (ppm) (Trial 3) | Ammonia (ppm) (Trial 4) | Ammonia (ppm) (Trial 5) | Ammonia (ppm) (Trial 6) |
| --- | --- | --- | --- | --- | --- | --- | --- |
| N=C(N)NCCC[C@H](N)C(=O)O [L-Arginine, L-arginine] | 1.06 | 0.509 | 0.866 | 2.20 | 1.62 | 0.5 | 0.679 |
| NC(=O)NCCC[C@H](N)C(=O)O [L-Citrulline, L-citrulline] | 0.951 | 0.185 | 0.346 | 0.332 | 0.194 | 0.226 | 0.951 |
| NCCC[C@H](N)C(=O)O [L-Ornithine, L-ornithine] | 0.134 | 0.185 | 0.260 | 0.047 | 0.0 | 0.181 | 0.135 |
